In data set [1] the test system is SAH rats. As to the kind of experiment: Short-term neurological function of SAH rats (Garcia score, beam balance test, bleeding score). It counts as in vivo, rat. Conditions: SAH model; for Beam balance score / Garcia score: 24 hours after modeling. The procedure: Experimental grouping: At 2 h after endovascular perforation or collagenase VII injection, Zea Longa score was used to evaluate the neurological function of rats. Successful model rats were randomly divided into groups for administration.
All groups were administrated through the tail vein injection except for group N administrated intraperitoneally.
The rats were fasted for 12 hours before operation, and were anesthetized with 4% isoflurane, and kept anesthetized with 2% isoflurane. The animals were fixed in the supine position with the body temperature maintained at about 37° C. A traditional skin incision of the neck was performed along the midline. The muscle and fascia were separated along the medial margin of the sternocleidomastoid muscle to expose the right side, then the common carotid artery (CCA), external carotid artery (ECA) and internal carotid artery (ICA) were bluntly separated with disposal lines placed at CCA proximal end, ICA and ECA for use. The CCA proximal end and the ECA were ligated, and the ICA was temporarily clamped with an arterial clip, and then a small hole was poked with a needle at about 4 mm from the bifurcation at the CCA. A nylon suture was introduced into the CCA from the hole and advanced through the ICA after releasing the arterial clip, and the suture was inserted intracranially. […] The suture moved forward for roughly 2 mm to perforate the artery followed by instant withdraw, and then the suture was completely removed and the ICA was ligated. Finally, the incision was cleaned with normal saline and sutured. The sham group conducted the same procedure as the model group except for the perforation. After awakening from anesthesia, the animals were raised normally.
The SAH severity was grading after rat's euthanasia, i.e., completing the evaluation of short-term neurological function. The score was determined by the amount of subarachnoid hemorrhage on the surface of basal cistern and brain tissue which was divided into six parts by the Willis ring composed of basilar artery, anterior cerebral artery, internal carotid artery, posterior cerebral artery and posterior communicating artery. Each part was graded from 0 to 3 points according to the amount of subarachnoid blood clots, i.e., 0 points: no subarachnoid blood; 1 point: a small amount of subarachnoid blood; 2 points: moderate amount of blood clots with recognizable arteries; 3 points: blood clots cover all arteries in the area. All 6 part scores were added up for a total of 18 points. According to the final score, SAH hemorrhage severity could be divided into mild subarachnoid hemorrhage (0 to 7 points), moderate subarachnoid hemorrhage (8 to 12 points), and severe subarachnoid hemorrhage (13 to 18 points). The moderate to severe SAH models were selected for statistical analysis (score≥8 points).
According to Zea Longa's neurological function score, the rats were scored 2 hours after the operation when they were awake from anesthesia. Successful model rats with a score of 1 to 3 points were enrolled in the group: • 0 points: no neurological deficits with normal activity; • 1 point: inability to fully extend the contralateral forepaw; • 2 points: the animal appears to turn in circles when crawling; • 3 points: the animal tends to lean to the hemiplegic side; • 4 points: the animal cannot walk spontaneously or loses consciousness. 1.4 Assessment of Short-Term Neurological Function
The neurological function of rats was comprehensively evaluated with Garcia score and beam balance test 24 hours after modeling. The criteria of Garcia score are shown in Table 1, which evaluates the movement, sensation, climbing and limb symmetry of the rats with the score range of 3 to 18 points. The lower the score, the more severe the neurological injury. The criteria of the beam balance test are shown in Table 2, which evaluated the proprioception and body coordination of rats with the score range of 0 to 6 points. […]

The subject of data set [2] is SAH rats. Briefly: Long-term survival rate of SAH rats. The format is in vivo, rat. The settings on record: for Survival rate / 24-hour mortality rate: 2 hours after modeling then once a day for 14 days. On the procedure: The experimental materials, grouping and modeling methods were the same as those in effect embodiment 1. The rats were immediately administrated 2 hours after SAH modeling according to the grouping administration protocol and continued to be administrated once a day for 14 days thereafter, and the survival of the rats was observed and recorded for 14 days. The mortality rate within 24 hours in group S was as high as 53.8%.

Data set [3] concerns SAH rats. As to the kind of experiment: Brain water content and blood-brain barrier permeability (Evans blue), SAH rats. It counts as in vivo, rat. The settings on record: 24 hours after operation, group M, medium-dose intravenous, vs model group. On the procedure: After completing the evaluation of 24-hour short-term neurological function, 4% Evans blue solution (2.5 mL/kg) was injected into the right caudal vein of the rats. After circulated for 1 hour, the rats were deeply anesthetized and transcardinally perfused with 100 mL of normal saline to collect the rats' brain. The whole brain was divided into four groups: left hemisphere (LH), right hemisphere (RH), cerebellum (Cb) and brainstem (BS). The left and right hemispheres were coronally divided into two parts, one part was immediately weighed (wet weight) with a balance with an accuracy of 0.1 mg, dried in an oven at 105° C. for 24 hours and weighed again (dry weight). The brain water content was calculated as [(wet weight−dry weight)/wet weight]×100%. The other part of the brain tissue was weighed (wet weight) and emerged into 10 times the volume of pure formamide, incubated at 60° C. for 48 hours, centrifuged at 25° C. for 30 min (10,000 rpm/min). The Evans blue in the supernatant was measured at 622 nm by a UV spectrophotometry, and calculated with a standard curve for quantification. The amount of Evans blue was expressed as μg/g of brain tissue (wet weight).

Data set [4] relates to SAH rats. As to the kind of experiment: Ca2+ level and mitochondrial membrane potential in brain tissue, SAH rats. Conditions: 12-24 hours after operation, group M. The format is in vivo, rat. On the procedure:
The rats were decapitated to collect the brain 12 to 24 hours after modeling. The brain cortex around the hematoma was immediately taken to prepare a single cell suspension by enzymatic digestion (papain: 2 mg/mL; DNAase I: 0.05 mg/mL), with the cell concentration was adjusted to 5×10^6 cells/mL. 100 μL of cell suspension was incubated with 5 μM Fluo-3/AM dye solution or 10 μM Rhodamine 123 dye solution at 37° C. for 45 min. Then the cells were washed twice with PBS (phosphate buffer, pH=7.2-7.4), resuspended with 0.5 mL of PBS, and detected by a flow cytometry at the excitation wavelength of 506 nm and the emission wavelength of 526 nm. The mean fluorescence intensity of Fluo-3 and Rh123 in 10,000 cells was analyzed by FlowJo software.

A short description of data set [5]: Toxic and side effects observed during all the experiments. The settings on record: during all the experiments of the disclosure. The format is in vivo.
Another data set deals with ICH rats. As to the kind of experiment: Short-term neurological function of ICH rats (Garcia score, beam balance test). It counts as in vivo, rat. The settings on record: ICH model, 24 hours after modeling; group O, α-asarone emulsion oral administration 40 mg/kg.
Where [6] appears, read: group H, α-asarone emulsion injection 30 mg/kg tail vein.
Setting [7] is: group L, α-asarone emulsion injection 7.5 mg/kg tail vein.
[8] abbreviates: group M, α-asarone emulsion injection 15 mg/kg tail vein.

With `C/C=C/c1cc(OC)c(OC)cc1OC` [α-asarone, trans-2,4,5-trimethoxy-1-propenylbenzene], the Beam balance score with SAH rats [1] (setting [6]) is listed as 3.22; in the data set with SAH rats [1] (setting [7]), 3.30; in the data set on SAH rats [1] (setting [8]), 2.70; with ICH rats, 3.41. In addition, the Garcia score in the data set with SAH rats [1] (setting [6]) was 11.79; in the data set with SAH rats [1] (setting [7]), 10.82; with SAH rats [1] (setting [8]), 12.29; in the data set with ICH rats it was 10.17. In the data set with SAH rats [1] (group M, 15 mg/kg), the “curative effect compared with nimodipine (group N) and vinpocetine (group V)” value is on record as “better”. Besides, in the data set with SAH rats [2] (14 days, groups M, H, O and N), the “survival time (vs group S)” value is “prolonged”. Besides, the Survival rate was 55.6% with SAH rats [2] (Day 14, group H, α-asarone emulsion injection 30 mg/kg tail vein); 37.5% in the data set on SAH rats [2] (Day 14, group L, α-asarone emulsion injection 7.5 mg/kg tail vein); 61.5% in the data set with SAH rats [2] (Day 14, group M, α-asarone emulsion injection 15 mg/kg tail vein); 62.5% with SAH rats [2] (Day 14, group O, α-asarone emulsion oral administration 40 mg/kg). Further, the 24-hour mortality rate with SAH rats [2] (setting [6]) came out at 22.2%; in the data set with SAH rats [2] (setting [7]), 50.0%; in the data set on SAH rats [2] (setting [8]), 23.1%; in the data set on SAH rats [2] (group O, α-asarone emulsion oral administration 40 mg/kg), 25.0%. Further, in the data set on SAH rats [2] (groups M, H, O and N), the “mortality rate within 24 hours (vs group S)” value is “significantly reduced”. In the data set on SAH rats [3], the Evans blue content result is recorded as “significantly reduce”. Besides, the brain water content result in the data set with SAH rats [3] was “significantly reduce”. Further, the “calcium level in brain tissue” value with SAH rats [4] (Fluo-3 flow cytometry) was “significantly reduce”. In addition, the “mitochondrial membrane potential in brain tissue” value in the data set on SAH rats [4] (Rhodamine 123 flow cytometry) is recorded as “stabilize”. Also, in data set [5], the “toxic and side effects” value was “no obvious toxic and side effects”.
